Experimental data as given in patent US7262185B2, “Benzazepine derivative, process for producing the same, and use” (Takeda Chemical Industries Ltd., priority 2001, dated 2007).

Target: T1, human CCR5 chemokine receptor (Homo sapiens, UniProt P51681)
T1 construct: expressed in transfected cells
Experiment: Inhibition of [125I]-RANTES binding to CCR5/CHO cells (CCR5 antagonistic activity)
Details: 40 min, test compound 1 μM, [125I]-RANTES as ligand, room temperature, read-out: Binding Inhibitory Ratio (%)
Description: Cloning of CCR5 gene from human spleen cDNA was conducted using the PCR method. Using spleen cDNA (0.5 ng) (TOYOBO CO., LTD, QUICK-Clone cDNA) as a template, PCR was performed in a DNA Thermal Cycler 480 (manufactured by Perkin Elmer) (reaction conditions: 30 cycles of 95° C. for 1 minute, 60° C. for 1 minute, and 75° C. for 5 minutes) by adding primer sets, SEQ. ID NO: 1 (sequence length: 34; sequence type: nucleic acid; chain number: single strand; topology: linear; kind of sequence: other nucleic acid synthetic. DNA) described in Experimental. Example (1) of WO 99/32100, and SEQ ID NO: 2 (sequence length: 34; sequence type: nucleic acid; chain number: single strand; topology: linear; kind of sequence: other nucleic acid synthetic. DNA) described in Experimental. Example (1) of WO 99/32100, (25 pmol, respectively), which were prepared referring to the nucleotide sequence of CCR5 gene, as reported by Samson et al. (Biochemistry 35 (11), 3362-3367 (1996)) and by using TaKaRa. EX Taq (Takara Shuzo). The resultant. PCR product was subjected to agarose gel electrophoresis to collect an approximately 1.0 kb. DNA fragment, which was subjected to an Original TA Cloning Kit (Funakoshi Co., Ltd.) to carry out cloning of CCR5 gene.
The plasmid obtained above was digested with restriction enzymes XbaI (Takara Shuzo Co., Ltd.) and BamHI (Takara Shuzo Co., Ltd.), and then subjected to agarose gel electrophoresis to collect DNA fragment of about 1.0 kb. The DNA fragment and plasmid pcDNA 3.1 (Funakoshi. Co., Ltd.) for expression in animal cells, which was previously digested with XbaI and BamHI, were mixed and ligated by DNA Ligation Kit Ver. 2 (Takara Shuzo Co., Ltd.). The resulting plasmid was subjected to transformation into. E. coli JM109 competent cells (Takara Shuzo Co., Ltd.) to obtain plasmid pCKR5.
CHO-K1 cells were cultured in a 750-ml tissue culture flask (Becton, Dickinson and Company.) using. Ham F12 medium (NIHON PHARMACEUTICAL CO., LTD.) containing 10% fetal bovine serum (Lifetech Oriental) and were collected using 0.5 g/L trypsin-0.2 g/L EDTA (Lifetech Oriental). The cells were washed with PBS (Lifetech Oriental), centrifuged (1000 rpm, 5 minutes), and suspended in PBS. The DNA was introduced into the cells using a Gene Pulser (Bio-Rad Laboratories, Inc.) under the following conditions. Namely, 8×10^6 cells and 10 μg of plasmid pCKR5 for expression of human CCR5 were placed in a cuvette having a 0.4-cm gap, and electroporation was carried out with a voltage 0.25 kV and 960 μF of capacitance. Then, the cells were transferred into Ham's. F12 medium containing 10% fetal bovine serum, and incubated for 24 hours. The cells were collected, centrifuged, and suspended in Ham' F12 medium containing 10% fetal bovine serum and Geneticin (Lifetech Oriental) at a concentration of 500 μg/ml. The suspension of cells was diluted to a concentration of 10^4 cells/ml, and was inoculated onto 96-well plate (Becton Dickinson), to obtain Geneticin-resistant strain.
Then, resulting. Geneticin-resistant strain were cultured on 96-well plate (Becton Dickinson), and CCR5-expressing cells were selected from the resistant cells. Namely, in an assay buffer, (Ham's F12 medium containing 0.5% BSA, and 20 mM HEPES (Wako Pure Chemical Ind., pH 7.2)) to which was added […][125I]-RANTES (Amersham) as a ligand, the cells were subjected to a binding reaction at room temperature for 40 minutes. Wells containing the cells were washed with ice-cooled PBS, and 50 μl/well of 1M NaOH was added and stirred. The cells to which the ligand was bound specifically, i.e., CCR5/CHO cells, were selected by measurement of radioactivity using a […].
The CCR5/CHO cells were inoculated onto 96-well microplate at a concentration of 5×10^4 cells/well, and were cultured for 24 hours. After removal of the medium by aspiration, to each well was added an assay buffer containing a test compound (1 μM), and [125I]/RANTES (Amersham) used as a ligand at a concentration of […]. […]

T1 sequence (P51681 whole entry): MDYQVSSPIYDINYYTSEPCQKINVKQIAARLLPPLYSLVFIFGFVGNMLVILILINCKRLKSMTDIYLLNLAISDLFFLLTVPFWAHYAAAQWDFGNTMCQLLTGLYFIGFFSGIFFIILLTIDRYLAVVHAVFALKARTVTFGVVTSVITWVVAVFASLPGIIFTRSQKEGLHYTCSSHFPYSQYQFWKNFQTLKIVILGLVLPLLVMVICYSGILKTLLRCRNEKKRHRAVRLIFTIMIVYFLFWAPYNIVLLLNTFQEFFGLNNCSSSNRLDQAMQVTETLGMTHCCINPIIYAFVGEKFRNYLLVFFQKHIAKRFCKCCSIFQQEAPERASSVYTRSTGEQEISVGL

| SMILES | inhibition at 1 µM |
| --- | --- |
| CCCCOCCOc1ccc(-c2ccc3c(c2)C=C(C(=O)Nc2ccc([S+]([O-])Cc4cccnc4)cc2)CCN3CC(C)C)cc1 (stereo not drawn) [Compound 210, 7-[4-(2-butoxyethoxy)phenyl]-1-isobutyl-N-[4-[(3-pyridinylmethyl)sulfinyl]phenyl]-2,3-dihydro-1-benzazepine-4-carboxamide] | 97% |
| CCCCOCCOc1ccc(-c2ccc3c(c2)C=C(C(=O)Nc2ccc([S+]([O-])Cc4nc(C)cc(C)n4)cc2)CCN3CC(C)C)cc1 (stereo not drawn) [Compound 230, 7-[4-(2-butoxyethoxy)phenyl]-N-[4-[[(4,6-dimethyl-2-pyrimidinyl)methyl]sulfinyl]phenyl]-1-isobutyl-2,3-dihydro-1-benzazepine-4-carboxamide] | 98% |
| CCCCOCCOc1ccc(-c2ccc3c(c2)C=C(C(=O)Nc2ccc([S+]([O-])Cc4cccnc4)c(OC)c2)CCN3CC(C)C)cc1 (stereo not drawn) [Compound 240, 7-[4-(2-butoxyethoxy)phenyl]-1-isobutyl-N-[3-methoxy-4-[(3-pyridinylmethyl)sulfinyl]phenyl]-2,3-dihydro-1-benzazepine-4-carboxamide] | 97% |
| CCCCOCCOc1ccc(-c2ccc3c(c2)C=C(C(=O)Nc2ccc([S+]([O-])Cc4nnnn4CC)cc2)CCN3CC(C)C)cc1 (stereo not drawn) [Compound 242, 7-[4-(2-butoxyethoxy)phenyl]-1-isobutyl-N-[4-[[(1-ethyl-tetrazol-5-yl)methyl]sulfinyl]phenyl]-2,3-dihydro-1-benzazepine-4-carboxamide] | 94% |
| CCCCOCCOc1ccc(-c2ccc3c(c2)C=C(C(=O)Nc2ccc([S+]([O-])Cc4cccnc4C)cc2)CCN3CC(C)C)cc1 (stereo not drawn) [Compound 251, 7-[4-(2-butoxyethoxy)phenyl]-1-isobutyl-N-[4-[[(2-methyl-3-pyridinyl)methyl]sulfinyl]phenyl]-2,3-dihydro-1-benzazepine-4-carboxamide] | 99% |
| CCCCOCCOc1ccc(-c2ccc3c(c2)C=C(C(=O)Nc2ccc([S+]([O-])Cc4cccnn4)cc2)CCN3CC(C)C)cc1 (stereo not drawn) [Compound 259, 7-[4-(2-butoxyethoxy)phenyl]-1-isobutyl-N-[4-[(3-pyridazinylmethyl)sulfinyl]phenyl]-2,3-dihydro-1-benzazepine-4-carboxamide] | 88% |
| CCCCOCCOc1ccc(-c2ccc3c(c2)C=C(C(=O)Nc2ccc([S+]([O-])Cc4cccnc4C)nc2)CCN3CC(C)C)cc1 (stereo not drawn) [Compound 272, 7-[4-(2-butoxyethoxy)phenyl]-1-isobutyl-N-[6-[[(2-methyl-3-pyridinyl)methyl]sulfinyl]-3-pyridinyl]-2,3-dihydro-1-benzazepine-4-carboxamide] | 98% |
| CCCCOCCOc1ccc(-c2ccc3c(c2)C=C(C(=O)Nc2ccc([S+]([O-])Cc4cncn4CCOC)cc2)CCN3CC(C)C)cc1 (stereo not drawn) [Compound 308, 7-[4-(2-butoxyethoxy)phenyl]-1-isobutyl-N-[4-[[[1-(2-methoxyethyl)imidazol-5-yl]methyl]sulfinyl]phenyl]-2,3-dihydro-1-benzazepine-4-carboxamide] | 100% |
| CCCCOCCOc1ccc(-c2ccc3c(c2)C=C(C(=O)Nc2ccc4nc([S+]([O-])Cc5cncn5CCC)[nH]c4c2)CCN3CC(C)C)cc1 (stereo not drawn) [Compound 313, 7-[4-(2-butoxyethoxy)phenyl]-1-isobutyl-N-[2-[[(1-propylimidazol-5-yl)methyl]sulfinyl]benzimidazol-5-yl]-2,3-dihydro-1-benzazepine-4-carboxamide] | 95% |
| CCCCOCCOc1ccc(-c2ccc3c(c2)C=C(C(=O)Nc2ccc(SCc4nccn4C)c(C)c2)CCN3CC(C)C)cc1 [Compound 355, 7-[4-(2-butoxyethoxy)phenyl]-1-isobutyl-N-[3-methyl-4-[[(1-methylimidazol-2-yl)methyl]sulfanyl]phenyl]-2,3-dihydro-1-benzazepine-4-carboxamide] | 99% |
| CCCCOCCOc1ccc(-c2ccc3c(c2)C=C(C(=O)Nc2ccc(SCc4nccn4C4CC4)cc2)CCN3CC(C)C)cc1 [Compound 366, 7-[4-(2-butoxyethoxy)phenyl]-N-[4-[[[1-cyclopropylimidazol-2-yl]methyl]sulfanyl]phenyl]-1-isobutyl-2,3-dihydro-1-benzazepine-4-carboxamide] | 96% |
| CCCCOCCOc1ccc(-c2ccc3c(c2)C=C(C(=O)Nc2ccc([S+]([O-])Cc4nccn4C4CC4)cc2)CCN3CC(C)C)cc1 (stereo not drawn) [Compound 367, 7-[4-(2-butoxyethoxy)phenyl]-N-[4-[[[1-cyclopropylimidazol-2-yl]methyl]sulfinyl]phenyl]-1-isobutyl-2,3-dihydro-1-benzazepine-4-carboxamide] | 96% |
| CCCCOCCOc1ccc(-c2ccc3c(c2)C=C(C(=O)Nc2ccc([S+]([O-])Cc4cncn4CCC)cc2)CCN3CC(C)C)cc1 (stereo not drawn) [Compound 371, 7-[4-(2-butoxyethoxy)phenyl]-1-isobutyl-N-[4-[[[1-propylimidazol-5-yl]methyl]sulfinyl]phenyl]-2,3-dihydro-1-benzazepine-4-carboxamide] | 100% |
| CCCCOCCOc1ccc(-c2ccc3c(c2)C=C(C(=O)Nc2ccc([S+]([O-])Cc4cncn4CCC)cc2)CCN3CCC)cc1 (stereo not drawn) [Compound 375, 7-[4-(2-butoxyethoxy)phenyl]-1-propyl-N-[4-[[[1-propylimidazol-5-yl]methyl]sulfinyl]phenyl]-2,3-dihydro-1-benzazepine-4-carboxamide] | 92% |
| CCCCOCCOc1ccc(-c2ccc3c(c2)C=C(C(=O)Nc2ccc(SCc4cncn4C(C)C)cc2)CCN3CC(C)C)cc1 [Compound 383, 7-[4-(2-butoxyethoxy)phenyl]-1-isobutyl-N-[4-[[[1-isopropylimidazol-5-yl]methyl]sulfanyl]phenyl]-2,3-dihydro-1-benzazepine-4-carboxamide] | 93% |
| CCCCOCCOc1ccc(-c2ccc3c(c2)C=C(C(=O)Nc2ccc(SCc4cnc5n4CCCC5)cc2)CCN3CC(C)C)cc1 [Compound 404, 7-[4-(2-butoxyethoxy)phenyl]-1-isobutyl-N-[4-[[(5,6,7,8-tetrahydroimidazo[1,2-a]pyridin-3-yl)methyl]thio]phenyl]-2,3-dihydro-1H-1-benzazepine-4-carboxamide] | 85% |
| CCCCOCCOc1ccc(-c2ccc3c(c2)C=C(C(=O)Nc2ccc([S+]([O-])Cc4nccn4CCOC(C)=O)cc2)CCN3CC(C)C)cc1 (stereo not drawn) [Compound 411, [2-[[[4-[[[7-[4-(2-butoxyethoxy)phenyl]-1-isobutyl-2,3-dihydro-1H-1-benzazepin-4-yl]carbonyl]amino]phenyl]sulfinyl]methyl]-1H-imidazol-1-yl]ethyl acetate] | 100% |
| CCCCOCCOc1ccc(-c2ccc3c(c2)C=C(C(=O)Nc2ccc(S(=O)(=O)Cc4nccn4CCCC(=O)NC)cc2)CCN3CC(C)C)cc1 [Compound 425, 7-[4-(2-butoxyethoxy)phenyl]-N-[4-[[[1-[4-(methylamino)-4-oxobutyl]-1H-imidazol-2-yl]methyl]sulfonyl]phenyl]-1-isobutyl-2,3-dihydro-1H-1-benzazepine-4-carboxamide] | 100% |
